Patent US20090069320A1, “Substituted 4-Amino-Quinazoline Compounds with Metabotropic Glutamate Receptor Regulating Activity and Uses Thereof” (Gruenenthal GmbH, priority 2006, published 2009)
Structures can show the parent of a compound that is named as a salt.

Molecular target: T1, mGluR5 receptor (Sus scrofa, UniProt I3LUI7)
T1 construct: 450 μg of protein from brain homogenate with 5 nM ^3[H]-MPEP; from tissue; host or cells: pig brain halves without medulla, cerebellum and pons
Test: [3H]-MPEP mGluR5 receptor binding assay (pig brain homogenate)
Conditions: 5 nM [3H]-MPEP; for IC50: read-out: IC50 mGluR5 Receptor (pig) [^3H]-MPEP Bond; for inhibition at 10 µM: 10 μM compound, read-out: % Inhibition of mGluR5 Receptor (pig) [^3H]-MPEP Bond at 10 μM
Summary of the method: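 Radioligand displacement of 5 nM [3H]-MPEP from pig brain homogenate (450 μg protein; medulla, cerebellum and pons removed) in 20 mM Hepes pH 8.0. Compounds were tested at 10 μM, incubated 60 min at room temperature, then filtered and counted by scintillation. Non-specific binding was defined with 10 μM MPEP.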

T1 sequence (I3LUI7 19-1212): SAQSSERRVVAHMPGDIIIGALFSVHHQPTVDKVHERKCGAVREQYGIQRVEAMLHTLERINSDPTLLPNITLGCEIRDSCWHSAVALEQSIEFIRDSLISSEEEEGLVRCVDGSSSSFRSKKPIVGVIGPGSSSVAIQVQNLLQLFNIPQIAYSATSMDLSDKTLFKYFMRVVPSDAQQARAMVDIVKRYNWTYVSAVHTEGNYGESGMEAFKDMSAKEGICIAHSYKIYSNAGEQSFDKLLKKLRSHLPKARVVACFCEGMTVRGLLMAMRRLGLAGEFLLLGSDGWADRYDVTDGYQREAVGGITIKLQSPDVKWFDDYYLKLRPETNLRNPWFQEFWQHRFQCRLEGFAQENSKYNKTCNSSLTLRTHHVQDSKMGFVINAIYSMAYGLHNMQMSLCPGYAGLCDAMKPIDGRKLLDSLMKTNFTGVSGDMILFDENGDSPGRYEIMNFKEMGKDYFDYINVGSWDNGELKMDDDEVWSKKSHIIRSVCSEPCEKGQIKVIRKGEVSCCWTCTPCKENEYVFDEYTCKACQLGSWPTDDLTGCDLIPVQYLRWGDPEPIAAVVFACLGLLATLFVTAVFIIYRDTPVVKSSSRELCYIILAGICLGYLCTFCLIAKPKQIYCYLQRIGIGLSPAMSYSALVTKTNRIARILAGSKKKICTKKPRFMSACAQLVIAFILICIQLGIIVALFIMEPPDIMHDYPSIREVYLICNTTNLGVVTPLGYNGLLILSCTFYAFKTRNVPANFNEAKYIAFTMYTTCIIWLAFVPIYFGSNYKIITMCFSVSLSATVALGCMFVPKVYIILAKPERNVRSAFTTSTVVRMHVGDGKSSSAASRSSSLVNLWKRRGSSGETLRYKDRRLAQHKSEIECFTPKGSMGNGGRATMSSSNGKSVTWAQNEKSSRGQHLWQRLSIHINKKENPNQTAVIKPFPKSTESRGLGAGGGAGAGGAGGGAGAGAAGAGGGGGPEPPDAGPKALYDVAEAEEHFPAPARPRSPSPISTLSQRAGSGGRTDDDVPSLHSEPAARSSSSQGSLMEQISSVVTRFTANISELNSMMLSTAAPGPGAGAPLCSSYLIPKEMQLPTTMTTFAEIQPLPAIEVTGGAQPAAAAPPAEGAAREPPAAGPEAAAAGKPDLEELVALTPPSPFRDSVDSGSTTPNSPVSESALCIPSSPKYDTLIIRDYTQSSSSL

Structure (SMILES) | IC50 [µM] | inhibition at 10 µM [%]
O=S(=O)(CC(F)(F)F)N(Cc1cccc(-c2ccc3ncnc(NC4CC4)c3c2)c1)C1CC1 [Example 225, N-cyclopropyl-N-(3-(4-(cyclopropylamino)quinazolin-6-yl)benzyl)-2,2,2-trifluoroethane sulfonamide] | 1.48 | –
O=S(=O)(c1ccc(C(F)(F)F)cc1)N(Cc1cccc(-c2ccc3ncnc(NC4CC4)c3c2)c1)C1CC1 [Example 226, N-cyclopropyl-N-(3-(4-(cyclopropylamino)quinazolin-6-yl)benzyl)-4-(trifluoromethyl)benzole sulfonamide] | 2.64 | –
O=S(=O)(c1ccccc1)N(Cc1cccc(-c2ccc3ncnc(NC4CC4)c3c2)c1)C1CC1 [Example 227, N-cyclopropyl-N-(3-(4-(cyclopropylamino)quinazolin-6-yl)benzyl)benzole sulfonamide] | 2.57 | –
O=C1C2CCCCC2C(=O)N1Cc1cccc(-c2ccc3ncnc(NC4CC4)c3c2)c1 (stereo not drawn) [Example 228, 2-[3-(4-cyclopropylamino-quinazolin-6-yl)-benzyl]-hexahydro-isoindole-1,3-dione; hydrochloride] | 8.7 | –
O=C1CC(c2ccccc2)C(=O)N1Cc1cccc(-c2ccc3ncnc(NC4CC4)c3c2)c1 (stereo not drawn) [Example 229, 1-[3-(4-cyclopropylamino-quinazolin-6-yl)-benzyl]-3-phenyl-pyrrolidine-2,5-dione; hydrochloride] | 3.5 | –
CC(c1cccc(-c2ccc3ncnc(NC4CC4)c3c2)c1)N(C1CC1)S(C)(=O)=O (stereo not drawn) [Example 231, N-cyclopropyl-N-(1-(3-(4-(cyclopropylamino)quinazolin-6-yl)phenyl)ethyl)methane sulfonamide] | 5.72 | –
CC(=O)N(Cc1ccc(-c2ccc3ncnc(NC4CC4)c3c2)o1)C1CC1 [Example 232, N-cyclopropyl-N-[5-(4-cyclopropylamino-quinazolin-6-yl)-furan-2-yl-methyl]-acetamide] | 4.27 | –

Next, values leading:

IC50 [µM] | inhibition at 10 µM [%] | Structure (SMILES)
0.82 | – | CC(c1cccc(-c2ccc3ncnc(NC4CC4)c3c2)c1)N(C(=O)c1ccccc1)C1CC1 (stereo not drawn) [Example 233, N-cyclopropyl-N-{1-[3-(4-cyclopropylamino-quinazolin-6-yl)-phenyl]-ethyl}-benzamide]
– | 41 | CS(=O)(=O)N(Cc1cncc(-c2ccc3ncnc(NC4CC4)c3c2)c1)C1CC1 [Example 234, N-cyclopropyl-N-[5-(4-cyclopropylamino-quinazolin-6-yl)-pyridin-3-yl-methyl]-methane sulfonamide]
7.35 | – | CC(=O)N(C1CC1)C(C)c1cccc(-c2ccc3ncnc(NC4CC4)c3c2)c1 (stereo not drawn) [Example 235, N-cyclopropyl-N-{1-[3-(4-cyclopropylamino-quinazolin-6-yl)-phenyl]-ethyl}-acetamide]
0.57 | – | COC(=O)CC(=O)N(Cc1cccc(-c2ccc3ncnc(NC4CC4)c3c2)c1)C1CC1 [Example 237, N-cyclopropyl-N-[3-(4-cyclopropylamino-quinazolin-6-yl)-benzyl]-methyl malonate]
0.5 | – | COC(=O)C(=O)N(Cc1cccc(-c2ccc3ncnc(NC4CC4)c3c2)c1)C1CC1 [Example 238, N-cyclopropyl-N-[3-(4-cyclopropylamino-quinazolin-6-yl)-benzyl]-methyl oxalate]
4.12 | – | CC(=O)N(Cc1cc(C)cc(-c2ccc3ncnc(NC4CC4)c3c2)c1)C1CC1 [Example 239, N-cyclopropyl-N-[3-(4-cyclopropylamino-quinazolin-6-yl)-5-methyl-benzyl]-acetamide]
– | 47 | CC(=O)N(Cc1cncc(-c2ccc3ncnc(NC4CC4)c3c2)c1)C1CC1 [Example 240, N-cyclopropyl-N-[5-(4-cyclopropylamino-quinazolin-6-yl)-pyridin-3-yl-methyl]-acetamide]
– | 33 | O=C1c2ccccc2C(=O)N1Cc1cccc(-c2ccc3ncnc(NC4CC4)c3c2)c1 [Example 241, 2-[3-(4-cyclopropylamino-quinazolin-6-yl)-benzyl]-isoindole-1,3-dione; hydrochloride]
